{"source": "patent US20240141330A1", "about": "“METHODS AND COMPOSITIONS FOR MUTAGENESIS SCREENING IN MAMMALIAN CELLS” (THE BOARD OF REGENTS OF THE UNIVERSITY OF TEXAS SYSTEM, priority 2021, published 2024)", "test_system": "K562 cells harboring doxycycline-inducible BCR-ABL1 variants", "conditions": "FIG. 7C", "excerpt": "Values shown are averages±standard error of the mean (SEM) of 2 biological replicates.\nFor this example, the K562 CML cell line was used as it harbored the BCR-ABL1 fusion gene/protein and was highly sensitive to BCR-ABL1 inhibitors.\nLentiMutate may create large and small indels because the HIV-1 RT is known to switch templates and have low processivity. […] As a comparison, also tested was the 35INS variant, a BCR-ABL variant detected in patient samples that truncates BCR-ABL at the end of the kinase domain, producing a kinase dead protein, due to the insertion and usage of a 35 bp sequence in an intron that acts as a novel splicing site.", "note": "Read-outs that look alike come from different tables or passages of the source.", "data": [{"smiles": "O=C(Nc1ccc(OC(F)(F)Cl)cc1)c1cnc(N2CC[C@@H](O)C2)c(-c2cc[nH]n2)c1", "note": "[asciminib]", "values": [{"measurement": "Resistance conferred by BCR-ABL1 variant", "setting": "deletions in ABL1 (−SV11)", "result": "did not"}, {"measurement": "Resistance conferred by BCR-ABL1 variant", "setting": "deletions in BCR (−SV8 and −NTCD)", "result": "conferred resistance"}]}]}
